From patent US20240148821A1, “PHARMACEUTICAL USE OF CYCLIC PEPTIDE COMPOUND” (CHUGAI SEIYAKU KABUSHIKI KAISHA, priority 2021, published 2024)
Numbered stars: 1 amine (or outer) side, 2 acyl side, 3 side chain; on linkers, the order of the positions; unused ones are H or OH. Bridge positions count the residues as written; N and C are the ends. Square brackets hold non-standard residues; d marks the D form. Peptide text beside a SMILES is read from it. * marks the point of attachment. hPhe(3-Cl-4-CF3) = N[C@@H](CCc1ccc(C(F)(F)F)c(Cl)c1)C(=O)O; hPhe(3-F,4-CF3) = N[C@@H](CCc1ccc(C(F)(F)F)c(F)c1)C(=O)O; NEtPhe(4-CF3) = CCN[C@@H](Cc1ccc(C(F)(F)F)cc1)C(=O)O; hPhe(4-CF3) = N[C@@H](CCc1ccc(C(F)(F)F)cc1)C(=O)O; NEtPhe(4-Me) = CCN[C@@H](Cc1ccc(C)cc1)C(=O)O; NMePhe(4-Cl) = CN[C@@H](Cc1ccc(Cl)cc1)C(=O)O; NMePhe(4-Me) = CN[C@@H](Cc1ccc(C)cc1)C(=O)O; NMeNle(6-CHF2) = CN[C@@H](CCCCC(F)F)C(=O)O; NMedβ3hAla = C[C@H](CC(=O)[*:2])N(C)[*:1]; NMeGly(cPent) = CN[C@H](C(=O)O)C1CCCC1; Phe(3-I) = N[C@@H](Cc1cccc(I)c1)C(=O)O; NMeCha = CN[C@@H](CC1CCCCC1)C(=O)O; Hyp = O=C(O)[C@@H]1C[C@@H](O)CN1; NMeChg = CN[C@H](C(=O)O)C1CCCCC1; NMeI = CC[C@H](C)[C@H](NC)C(=O)O; NMeE = CN[C@@H](CCC(=O)O)C(=O)O; NMeD = CN[C@@H](CC(=O)O)C(=O)O; NMeL = CN[C@@H](CC(C)C)C(=O)O; NMePra = C#CC[C@H](NC)C(=O)O; NMeV = CN[C@H](C(=O)O)C(C)C; d(β3hA) = C[C@@H](N)CC(=O)O; NMeS = CN[C@@H](CO)C(=O)O; Pip = O=C(O)[C@@H]1CCCCN1; dPip = O=C(O)[C@H]1CCCCN1; NMeA = CN[C@@H](C)C(=O)O; NMeAib = CNC(C)(C)C(=O)O; Nle = CCCC[C@H](N)C(=O)O; Piperidide = C1CCN(*)CC1; Pyrrolidide = C1CCN(*)C1; Ac5c = NC1(C(=O)O)CCCC1; Aze = O=C(O)[C@@H]1CCN1; Cyclobutyl = C1CC(*)C1; Aib = CC(C)(N)C(=O)O; Sar = CNCC(=O)O; OAll = C=CCO*

How the values were obtained:
[1] = system: Human pancreatic cancer cell line AsPC-1 (G12D mutation Kras); assay: AsPC-1 cell growth inhibition (AsPC-1 CGI); assay type: cell-based; details: read-out: AsPC-1 cell growth inhibition, 50% growth inhibitory concentration (IC50 value); 96 hours, CellTiter-Glo, values classified in ranges
Description: Test compounds were serially dilated with dimethyl sulfoxide, and 200 nL was then dispensed to a U-bottom 96-well plate using Labcyte Echo. […] The cell suspension was dispensed to a. plate containing a test compound at 100 μL per well and incubated at 37° C. in a 5% carbon dioxide gas incubator. 96 hours later, 80 μL of CellTiter-Glo (Promega) was added to each well and fluorescence was measured.

[2] = molecular target: protein-protein interaction between Kras and SOS1 (biotin-tagged human Kras loaded with GDP, His-tagged human SOS1) (Homo sapiens (Human), UniProt P01116, G12D); assay: Protein-protein interaction inhibition between Kras and SOS1 (KrasG12D-SOS PPI) using AlphaScreen; assay type: biochemical; details: AlphaScreen; biotin-tagged human Kras loaded with GDP, His-tagged human SOS1; read-out: KRAS G12D-SOS PPI IC50;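 also: kras produced in E. coli, Ni-coupled donor beads and streptavidin acceptor beads, excitation 680 nm with emission detected at 520–620 nm via singlet oxygen transfer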

SMILES | IC50 [1] [nM] | IC50 [2] [nM]
CCCC[C@@H]1NC(=O)[C@H](CCc2ccc(C(F)(F)F)c(Cl)c2)NC(=O)CN(C)C(=O)[C@H](CC2CCCCC2)N(C)C(=O)[C@@H]2CCN2C(=O)CN(C)C(=O)[C@H]([C@@H](C)CC)NC(=O)[C@@H]2CCCCN2C(=O)C[C@@H](C(=O)N2CCCCC2)N(C)C(=O)[C@H](CC(C)C)NC(=O)C(C)(C)N(C)C1=O [Compound 760] ([Pip]I[Sar][Aze][NMeCha][Sar][hPhe(3-Cl-4-CF3)][Nle][NMeAib]L[NMeD]-Piperidide; lactam N-11) | > 500 | 5.2
C#CC[C@H]1C(=O)N(C)[C@H](C(=O)N2CCCCC2)CC(=O)N(C)[C@@H](CC(C)C)C(=O)N[C@@H]([C@@H](C)CC)C(=O)N(C)[C@@H](C)C(=O)N2CC[C@H]2C(=O)N(C)[C@@H](CC2CCCCC2)C(=O)N(C)CC(=O)N[C@@H](CCc2ccc(C(F)(F)F)c(Cl)c2)C(=O)N2CCC[C@H]2C(=O)NC2(CCCC2)C(=O)N1C [Compound 766] ([NMeL]I[NMeA][Aze][NMeCha][Sar][hPhe(3-Cl-4-CF3)]P[Ac5c][NMePra][NMeD]-Piperidide; lactam N-11) | > 500 | 130
CC[C@H](C)[C@@H]1NC(=O)[C@H](C(C)C)N(C)C(=O)C[C@@H](C(=O)N2CCCC2)NC(=O)[C@H](CC(C)C)N(C)C(=O)C2(CCCC2)NC(=O)[C@H](CC(C)C)N(C)C(=O)[C@H](CCc2ccc(C(F)(F)F)cc2)NC(=O)CN(C)C(=O)[C@H](Cc2ccc(Cl)cc2)N(C)C(=O)CN(C)C(=O)CN(C)C1=O [Compound 769] ([NMeV]I[Sar][Sar][NMePhe(4-Cl)][Sar][hPhe(4-CF3)][NMeL][Ac5c][NMeL]D-Pyrrolidide; lactam N-11) | > 500 | 52
CCO[C@@H]1C[C@H]2C(=O)NC3(CCCC3)C(=O)N(C)[C@@H](C3CCCC3)C(=O)N(C)[C@H](C)CC(=O)N(C)[C@@H](CC(C)C)C(=O)N[C@@H]([C@@H](C)CC)C(=O)N(C)[C@@H](C)C(=O)N3CC[C@H]3C(=O)N(CC)[C@@H](Cc3ccc(C)cc3)C(=O)N(C)CC(=O)N[C@@H](CCc3ccc(C(F)(F)F)c(Cl)c3)C(=O)N2C1 [Compound 775] (cyclo([Ac5c][NMeGly(cPent)][NMedβ3hAla][NMeL]I[NMeA][Aze][NEtPhe(4-Me)][Sar][hPhe(3-Cl-4-CF3)][Hyp](Et))) | ≤ 20 | 4.6
CC[C@H](C)[C@@H]1NC(=O)[C@H](CC(C)C)N(C)C(=O)C[C@@H](C(=O)N(C)C)N(C)C(=O)[C@H]([C@@H](C)CC)N(C)C(=O)[C@H](C(C)C)NC(=O)[C@@H]2CCCN2C(=O)[C@H](CCc2ccc(C(F)(F)F)c(Cl)c2)NC(=O)CN(C)C(=O)[C@H](Cc2ccc(C)cc2)N(C)C(=O)[C@@H]2CCN2C(=O)[C@H](C)N(C)C1=O [Compound 784] ([NMeL]I[NMeA][Aze][NMePhe(4-Me)][Sar][hPhe(3-Cl-4-CF3)]PV[NMeI][NMeD]-NMe2; lactam N-11) | > 500 | 4
CC[C@H](C)[C@@H]1NC(=O)[C@H](C)N(C)C(=O)C[C@@H](C)NC(=O)[C@H](CC(C)C)N(C)C(=O)C(C)(C)NC(=O)[C@H](CC(C)C)N(C)C(=O)[C@H](CCc2ccc(C(F)(F)F)cc2)NC(=O)CN(C)C(=O)[C@H](Cc2ccc(Cl)cc2)N(C)C(=O)CN(C)C(=O)CN(C)C1=O [Compound 788] (cyclo([Aib][NMeL][d(β3hA)][NMeA]I[Sar][Sar][NMePhe(4-Cl)][Sar][hPhe(4-CF3)][NMeL])) | > 500 | 13
C=CCOC(=O)C[C@H]1C(=O)NC2(CCCC2)C(=O)N(C)[C@@H](C(C)C)C(=O)N(C)[C@H](C(=O)N2CCCCC2)CC(=O)N(C)[C@@H](C)C(=O)N[C@@H]([C@@H](C)CC)C(=O)N(C)CC(=O)N(C)CC(=O)N(C)[C@@H](CC2CCCCC2)C(=O)N(C)CC(=O)N[C@@H](CCc2ccc(C(F)(F)F)c(Cl)c2)C(=O)N1C [Compound 792] ([NMeA]I[Sar][Sar][NMeCha][Sar][hPhe(3-Cl-4-CF3)][NMeD](OAll)[Ac5c][NMeV][NMeD]-Piperidide; lactam N-11) | > 500 | 3.5
CC[C@H](C)[C@@H]1NC(=O)[C@H](CC(C)C)N(C)C(=O)C[C@@H](C(=O)N2CCCCC2)N(C)C(=O)[C@H](C2CCCCC2)N(C)C(=O)C2(CCCC2)NC(=O)[C@H](CCCCC(F)F)N(C)C(=O)[C@H](CCc2ccc(C(F)(F)F)c(Cl)c2)NC(=O)CN(C)C(=O)[C@H](CC2CCCCC2)N(C)C(=O)CN(C)C(=O)CN(C)C1=O [Compound 796] ([NMeL]I[Sar][Sar][NMeCha][Sar][hPhe(3-Cl-4-CF3)][NMeNle(6-CHF2)][Ac5c][NMeChg][NMeD]-Piperidide; lactam N-11) | > 500 | 9.3
CC[C@H](C)[C@@H]1NC(=O)[C@H](CC(C)C)N(C)C(=O)C[C@@H](C)N(C)C(=O)[C@H](CC(C)C)NC(=O)C(C)(C)N(C)C(=O)[C@H](CC(C)C)NC(=O)[C@H](CCc2ccc(C(F)(F)F)c(F)c2)NC(=O)CN(C)C(=O)[C@H](Cc2ccc(Cl)cc2)N(C)C(=O)CN(C)C(=O)CN(C)C1=O [Compound 797] (cyclo(I[Sar][Sar][NMePhe(4-Cl)][Sar][hPhe(3-F,4-CF3)]L[NMeAib]L[NMedβ3hAla][NMeL])) | > 500 | 19
CC[C@H](C)[C@@H]1NC(=O)[C@H](CC(C)C)N(C)C(=O)C[C@@H](C(=O)N2CCCC2)N(C)C(=O)[C@H]([C@@H](C)CC)N(C)C(=O)C2(CCCC2)NC(=O)[C@@H]2CCCN2C(=O)[C@H](CCc2ccc(C(F)(F)F)c(Cl)c2)NC(=O)CN(C)C(=O)[C@H](C2CCCC2)N(C)C(=O)[C@@H]2CCN2C(=O)[C@H](C)N(C)C1=O [Compound 799] ([NMeL]I[NMeA][Aze][NMeGly(cPent)][Sar][hPhe(3-Cl-4-CF3)]P[Ac5c][NMeI][NMeD]-Pyrrolidide; lactam N-11) | ≤ 20 | 1.4
CC[C@H](C)[C@@H]1NC(=O)[C@H](CC(C)C)N(C)C(=O)C[C@@H](C)N(C)C(=O)[C@H]([C@@H](C)CC)NC(=O)C(C)(C)N(C)C(=O)[C@H](CC(C)C)NC(=O)[C@H](CCc2ccc(C(F)(F)F)c(F)c2)NC(=O)CN(C)C(=O)[C@H](Cc2ccc(Cl)cc2)N(C)C(=O)CN(C)C(=O)CN(C)C1=O [Compound 800] (cyclo(I[Sar][Sar][NMePhe(4-Cl)][Sar][hPhe(3-F,4-CF3)]L[NMeAib]I[NMedβ3hAla][NMeL])) | > 500 | 86
CC[C@H](C)[C@@H]1NC(=O)[C@H](CC(C)C)N(C)C(=O)C[C@@H](C)NC(=O)[C@H](C(C)C)N(C)C(=O)C2(CCCC2)NC(=O)[C@@H]2CCCN2C(=O)[C@H](CCc2ccc(C(F)(F)F)c(Cl)c2)NC(=O)CN(C)C(=O)[C@H](CC2CCCCC2)N(C)C(=O)[C@@H]2CCN2C(=O)[C@H](CCC(=O)NC)N(C)C1=O [Compound 810] (cyclo([Ac5c][NMeV][d(β3hA)][NMeL]I[NMeE](NHMe)[Aze][NMeCha][Sar][hPhe(3-Cl-4-CF3)]P)) | > 500 | 49
CCO[C@@H]1C[C@H]2C(=O)NC3(CCCC3)C(=O)N(C)[C@@H](C3CCCC3)C(=O)N(C)[C@H](C)CC(=O)N(C)[C@@H](CC(C)C)C(=O)N[C@@H]([C@@H](C)CC)C(=O)N(C)[C@@H](C)C(=O)N3CC[C@H]3C(=O)N(CC)[C@@H](Cc3ccc(C(F)(F)F)cc3)C(=O)N(C)CC(=O)N[C@@H](CCc3ccc(C(F)(F)F)c(Cl)c3)C(=O)N2C1 [Compound 816] (cyclo([Ac5c][NMeGly(cPent)][NMedβ3hAla][NMeL]I[NMeA][Aze][NEtPhe(4-CF3)][Sar][hPhe(3-Cl-4-CF3)][Hyp](Et))) | ≤ 20 | 3.9
CCCC[C@@H]1NC(=O)[C@H](Cc2cccc(I)c2)NC(=O)CN(C)C(=O)[C@H](Cc2ccc(C)cc2)N(C)C(=O)[C@@H]2CCN2C(=O)[C@H](C)N(C)C(=O)[C@H]([C@@H](C)CC)NC(=O)[C@H](CC(C)C)N(C)C(=O)C[C@@H](C(=O)N2CCCCC2)N(C)C(=O)[C@H](CC(C)C)NC(=O)[C@H]2CCCN2C1=O [Compound 822] ([NMeL]I[NMeA][Aze][NMePhe(4-Me)][Sar][Phe(3-I)][Nle][dP]L[NMeD]-Piperidide; lactam N-11) | > 500 | 150
CC[C@H](C)[C@@H]1NC(=O)[C@H](C)N(C)C(=O)C[C@@H](C(=O)N2CCCCC2)N(C)C(=O)[C@H](C(C)C)N(C)C(=O)C2(CCCC2)NC(=O)[C@@H]2CCCN2C(=O)[C@H](CCc2ccc(C(F)(F)F)c(Cl)c2)NC(=O)[C@H]2CCCCN2C(=O)[C@H](CC2CCCCC2)N(C)C(=O)[C@@H]2CCCN2C(=O)CN(C)C1=O [Compound 823] ([NMeA]I[Sar]P[NMeCha][dPip][hPhe(3-Cl-4-CF3)]P[Ac5c][NMeV][NMeD]-Piperidide; lactam N-11) | > 500 | 16
CC[C@H](C)[C@@H]1NC(=O)[C@H](CC(C)C)N(C)C(=O)C[C@@H](C(=O)N(C)C)N(C)C(=O)[C@H]([C@@H](C)CC)N(C)C(=O)[C@H](C)NC(=O)[C@@H]2CCCN2C(=O)[C@H](CCc2ccc(C(F)(F)F)c(Cl)c2)NC(=O)CN(C)C(=O)[C@H](Cc2ccc(C)cc2)N(C)C(=O)[C@@H]2CCN2C(=O)[C@H](C)N(C)C1=O [Compound 829] ([NMeL]I[NMeA][Aze][NMePhe(4-Me)][Sar][hPhe(3-Cl-4-CF3)]PA[NMeI][NMeD]-NMe2; lactam N-11) | > 500 | 2.3
CC[C@H](C)[C@@H]1NC(=O)[C@H](CC(C)C)N(C)C(=O)C[C@@H](C(=O)N2CCCCC2)N(C)C(=O)[C@H](C2CCCC2)N(C)C(=O)C2(CCCC2)NC(=O)[C@@H]2CCCN2C(=O)[C@H](CCc2ccc(C(F)(F)F)c(Cl)c2)NC(=O)CN(C)C(=O)[C@H](COC2CCC2)N(C)C(=O)[C@@H]2CCN2C(=O)[C@H](C)N(C)C1=O [Compound 835] ([NMeL]I[NMeA][Aze][NMeS](Cyclobutyl)[Sar][hPhe(3-Cl-4-CF3)]P[Ac5c][NMeGly(cPent)][NMeD]-Piperidide; lactam N-11) | ≤ 20 | 0.54
